# From patent US20240368640A1, “METHODS OF PURIFYING CANNABINOIDS” (AMYRIS, INC., priority 2021, published 2024)
# Entries after “also recorded” stand apart in the source; their conditions may differ.
# Columns and labels:
# [1] = test system: wild-type yeast (strain Y46850); assay: Growth of wild-type yeast in culture media containing an overlay oil (optical density); format: cell-based, S. cerevisiae
# Procedure: The ability of yeast cells (S. cerevisiae) to grow normally in culture media containing an overlay oil was assessed. Wild-type yeast (strain Y46850) was cultured in the presence of soybean oil, sunflower oil, safflower oil, castor oil, or JARCOL™ I-16. Cell growth was measured by assessing the optical density (OD) of the yeast culture suspensions in three independent experiments (SF1, SF2, and SF3) (FIGS. 1-3).
# [2] = Solubility of hexanoate in soybean oil by gas chromatography (GC-FID); conditions: oil or lipid
# [3] = Visual assessment of CBDA solubility in overlay oils; format: physicochemical; conditions: CBDA as hemp oil with 50% CBDA, target concentration greater than 50 g/L
# Procedure: Visual appearances of solutions containing CBDA (as hemp oil with 50% CBDA) were assessed for JARCOL™ I-16, soybean oil, castor oil, ESTEREX™ A 51, sunflower oil, DRAKEOL® 19, and DURASYN® 164. A target CBD concentration of greater than 50 g/L was desired for this set of experiments. Upon visual inspection, it was determined that CBDA was soluble in JARCOL™ I-16, soybean oil, castor oil, ESTEREX™ A 51, and sunflower oil, but was insoluble in DRAKEOL® 19 and DURASYN® 164 at the target concentration. Insolubility was evidenced by the presence of precipitates in solutions of DRAKEOL® 19 or DURASYN® 164 (FIG. 9).
# [4] = oil/hemp oil 10:1 v/v, visual inspection
# [5] = oil/hemp oil 10:1 v/v, visual inspection (precipitates)
smiles,measurement,setting,value
CCCCCCCCC(CO)CCCCCC (centres unmarked) [JARCOL™ I-16],Cell growth (optical density) versus control (no oil),"[1]; flask experiment SF2, strain Y46850 (FIG. 2)",not significantly different
same,Cell growth (optical density) versus control (no oil),"[1]; flask experiment SF3, strain Y46850 (FIG. 3)",not significantly different
same,Cell growth (optical density) versus control (no oil),"[1]; wild-type yeast strain Y46850 cultured with overlay oil, three independent experiments SF1, SF2, SF3",not significantly different
CCCCCC(=O)O [hexanoate],solubility,[2],≤ 185 mg/mL
"C=C(C)[C@@H]1CCC(C)=C[C@H]1c1c(O)cc(CCCCC)c(C(=O)O)c1O [CBDA, cannabidiolic acid]",Solubility of CBDA in JARCOL I-16,[3]; [4],soluble; also recorded: good solubility
same,Solubility of CBDA in castor oil,[3]; [4],soluble; also recorded: good solubility
same,Solubility of CBDA in soybean oil,[3]; [4],soluble; also recorded: good solubility
same,Solubility of CBDA in DRAKEOL 19,[3]; [5],insoluble; also recorded: lower solubility
same,Solubility of CBDA in DURASYN 164,[3]; [5],insoluble; also recorded: lower solubility
same,Solubility of CBDA in ESTEREX A 51,[3]; visual inspection,soluble
same,Solubility of CBDA in sunflower oil,[3]; visual inspection,soluble
